Test results taken from PubChem BioAssay AID248 (DTP/NCI, 2004).
Several values for one entry are separate records, joined by “and”; a condition that tells them apart may be missing. Equal values may be shown once. Inconclusive results and toxic doses are left out. Rule as the data show it: active = T/C of 150% or more; inactive = T/C below 125%.

System: L1210 leukemia ip in BDF1 mice, survival T/C
Experiment: NCI In Vivo Anticancer Drug Screen. Data for tumor model L1210 Leukemia (intraperitoneal) in B6D2F1 (BDF1) mice
Conditions: endpoint: mean survival time, higher = longer survival
Outline: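 Antitumor effect is assessed in tumor-bearing animals. Survival in the compound arm is compared with a vehicle-dosed control arm and expressed as their quotient.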

[1] = dose: 100.0 mg/kg/injection, schedule: Q01DX009 (ip), vehicle: saline with Tween-80
[2] = dose: 100.0 mg/kg/injection, schedule: Q04DX002 (ip), vehicle: Klucel (hydroxypropylcellulose) (HPC)
[3] = dose: 200.0 mg/kg/injection, schedule: Q01DX009 (ip), vehicle: saline with Tween-80
[4] = dose: 200.0 mg/kg/injection, schedule: Q04DX002 (ip), vehicle: Klucel (hydroxypropylcellulose) (HPC)
[5] = dose: 400.0 mg/kg/injection, schedule: Q01DX009 (ip), vehicle: saline with Tween-80
[6] = dose: 400.0 mg/kg/injection, schedule: Q04DX002 (ip), vehicle: Klucel (hydroxypropylcellulose) (HPC)
[7] = dose: 100.0 mg/kg/injection, schedule: Q01DX001 (ip), vehicle: saline
[8] = dose: 200.0 mg/kg/injection, schedule: Q01DX001 (ip), vehicle: saline
[9] = dose: 400.0 mg/kg/injection, schedule: Q01DX001 (ip), vehicle: saline
[10] = dose: 100.0 mg/kg/injection, schedule: Q04DX003 (ip), vehicle: saline with Tween-80
[11] = dose: 200.0 mg/kg/injection, schedule: Q04DX003 (ip), vehicle: saline with Tween-80
[12] = dose: 400.0 mg/kg/injection, schedule: Q04DX003 (ip), vehicle: saline with Tween-80
[13] = dose: 50.0 mg/kg/injection, schedule: Q01DX001 (ip), vehicle: gum acacia
[14] = dose: 100.0 mg/kg/injection, schedule: Q01DX001 (ip), vehicle: gum acacia
[15] = dose: 100.0 mg/kg/injection, schedule: Q04DX003 (ip), vehicle: saline
[16] = dose: 200.0 mg/kg/injection, schedule: Q04DX003 (ip), vehicle: saline
[17] = dose: 400.0 mg/kg/injection, schedule: Q04DX003 (ip), vehicle: saline
[18] = dose: 100.0 mg/kg/injection, schedule: Q01DX Z (ip), vehicle: methylcellulose (MC)
[19] = dose: 50.0 mg/kg/injection, schedule: Q01DX009 (ip), vehicle: Klucel (hydroxypropylcellulose) (HPC)
[20] = dose: 100.0 mg/kg/injection, schedule: Q01DX009 (ip), vehicle: Klucel (hydroxypropylcellulose) (HPC)
[21] = dose: 100.0 mg/kg/injection, schedule: Q04DX003 (ip), vehicle: Klucel (hydroxypropylcellulose) (HPC)
[22] = dose: 200.0 mg/kg/injection, schedule: Q01DX009 (ip), vehicle: Klucel (hydroxypropylcellulose) (HPC)
[23] = dose: 200.0 mg/kg/injection, schedule: Q04DX003 (ip), vehicle: Klucel (hydroxypropylcellulose) (HPC)

Measured: T/C

O=C(/C=C\c1ccc(Cl)cc1)c1ccccc1
inactive: [1] 91 % of control | [2] 89 % of control | dose: 100.0 mg/kg/injection, schedule: Q04DX002 (ip), vehicle: gum acacia 98 % of control | [3] 91 % of control | [4] 96 % of control | dose: 200.0 mg/kg/injection, schedule: Q04DX002 (ip), vehicle: gum acacia 95 % of control | [5] 86 % of control | [6] 96 % of control | dose: 400.0 mg/kg/injection, schedule: Q04DX002 (ip), vehicle: gum acacia 91 % of control

O=c1[nH]c2ccc(Br)cc2cc1Br
inactive: [7] 97 % of control | [8] 97 % of control | [9] 97 % of control

CC(=O)Nc1ccc(SS(=O)(=O)c2ccc(NC(C)=O)cc2)cc1
inactive: [7] 95 % of control | [8] 101 % of control | [9] 101 % of control

COc1cc(CC(=O)C(=O)O)oc(=O)c1
inactive: [10] 102 % of control | [11] 95 % of control | [12] 98 % of control

CCOC(=O)/C(C#N)=C/c1cccn1Cc1cc2ccccc2c2ccccc12
inactive: dose: 25.0 mg/kg/injection, schedule: Q04DX002 (ip), vehicle: saline 111 % of control | dose: 50.0 mg/kg/injection, schedule: Q04DX002 (ip), vehicle: saline 111 % of control | dose: 100.0 mg/kg/injection, schedule: Q04DX002 (ip), vehicle: saline 105 % of control

c1ccc2c(c1)Cc1cc3ccccc3cc1-2
inactive: [13] 94 % of control | [14] 95 % of control | dose: 200.0 mg/kg/injection, schedule: Q01DX001 (ip), vehicle: gum acacia 94 % of control

CCCCSc1nc2ccccc2c(=O)n1-c1ccccc1
inactive: dose: 100.0 mg/kg/injection, schedule: Q01DX001 (ip), vehicle: saline with Tween-80 100 % of control | dose: 200.0 mg/kg/injection, schedule: Q01DX001 (ip), vehicle: saline with Tween-80 103 % of control | dose: 400.0 mg/kg/injection, schedule: Q01DX001 (ip), vehicle: saline with Tween-80 97 % of control

COc1c([N+](=O)[O-])cc(-c2ccccc2)cc1[N+](=O)[O-]
inactive: [15] 87 % of control | [16] 87 % of control | [17] 87 % of control

Cc1cc(Nc2ccc(C)c(Cl)c2)nc(N)n1
inactive: [18] 89 % of control

NC(=S)N/N=C(\c1ccccc1)c1ccccn1
inactive: dose: 12.5 mg/kg/injection, schedule: Q01DX009 (ip), vehicle: gum acacia 101 % of control | dose: 25.0 mg/kg/injection, schedule: Q01DX001 (ip), vehicle: gum acacia 100 % of control | dose: 25.0 mg/kg/injection, schedule: Q01DX009 (ip), vehicle: gum acacia 95 % of control | dose: 25.0 mg/kg/injection, schedule: Q04DX003 (ip), vehicle: gum acacia 105 % of control | [13] 106 % of control | dose: 50.0 mg/kg/injection, schedule: Q01DX009 (ip), vehicle: gum acacia 93 % of control | dose: 50.0 mg/kg/injection, schedule: Q04DX003 (ip), vehicle: gum acacia 100 % of control | [14] 95 % of control

CCCCCCCC(=O)Nc1ccc(C)cc1
inactive: [19] 97 % of control | [20] 95 % of control | [21] 99 % of control | [22] 98 % of control | [23] 98 % of control

O=C(O)C(S)C(S)C(=O)O.[As] (stereo unspecified)
inactive: dose: 12.5 mg/kg/injection, schedule: Q01DX009 (ip), vehicle: saline 96 % of control | dose: 25.0 mg/kg/injection, schedule: Q01DX009 (ip), vehicle: saline 104 % of control | dose: 50.0 mg/kg/injection, schedule: Q01DX009 (ip), vehicle: saline 98 % of control

Clc1ccc2c(c1)-c1ccccc1C1=NCCN12
inactive: dose: 5.0 mg/kg/injection, schedule: Q01DX009 (ip), vehicle: Klucel (hydroxypropylcellulose) (HPC) 95 % of control | dose: 10.0 mg/kg/injection, schedule: Q01DX009 (ip), vehicle: Klucel (hydroxypropylcellulose) (HPC) 101 % of control | dose: 10.0 mg/kg/injection, schedule: Q04DX003 (ip), vehicle: Klucel (hydroxypropylcellulose) (HPC) 101 % of control | dose: 20.0 mg/kg/injection, schedule: Q04DX003 (ip), vehicle: Klucel (hydroxypropylcellulose) (HPC) 110 % of control

CC(C)(C)c1ccc(OS(=O)(=O)c2cccc([N+](=O)[O-])c2)cc1
inactive: [10] 104 % of control | [11] 99 % of control | [12] 106 % of control

Cc1ccc(CN=C=S)cc1
inactive: dose: 6.25 mg/kg/injection, schedule: Q01DX009 (ip), vehicle: saline with Tween-80 103 % of control | dose: 12.5 mg/kg/injection, schedule: Q01DX009 (ip), vehicle: saline with Tween-80 98 % of control | dose: 25.0 mg/kg/injection, schedule: Q01DX009 (ip), vehicle: saline with Tween-80 97 % of control

CCOC(=O)CCN(CC)CC
inactive: [15] 97 % of control | [16] 94 % of control | [17] 108 % of control

O[C@@H]1CCC[C@H]1n1cnc2c(=S)nc[nH]c21
inactive: dose: 89.0 mg/kg/injection, schedule: Q04DX003 (ip), vehicle: saline with Tween-80 104 % of control | dose: 133.0 mg/kg/injection, schedule: Q04DX003 (ip), vehicle: saline with Tween-80 112 % of control

c1ccc(C[Se]Cc2ccccc2)cc1
inactive: dose: 100.0 mg/kg/injection, schedule: Q04DX003 (ip), vehicle: other 92 % of control

CC(=O)OCC(CCC(C)C)=C(C)C
inactive: [1] 98 % of control | [10] 97 % of control | [3] 98 % of control | [11] 92 % of control | [5] 102 % of control | [12] 92 % of control

CC(C)C(CCN1CCCC1)(C(N)=O)c1cccc2ccccc12 (stereo unspecified)
inactive: [19] 112 % of control | [20] 105 % of control | [21] 98 % of control | [22] 112 % of control | [23] 95 % of control

CCOC(=O)c1cnc(NN)[nH]c1=O
inactive: [21] 97 % of control | [23] 97 % of control

Cc1ccc2c(c1C)-c1c(ccc(C)c1C)C(=O)C2=O
inactive: dose: 50.0 mg/kg/injection, schedule: Q04DX002 (ip), vehicle: Klucel (hydroxypropylcellulose) (HPC) 91 % of control | [2] 102 % of control and 113 % of control | [4] 94 % of control | [6] 94 % of control and 100 % of control

CC(CCl)(CCl)CCl
inactive: dose: 50.0 mg/kg/injection, schedule: Q01DX009 (ip), vehicle: saline sonified 96 % of control | dose: 100.0 mg/kg/injection, schedule: Q01DX001 (ip), vehicle: saline sonified 99 % of control | dose: 100.0 mg/kg/injection, schedule: Q01DX009 (ip), vehicle: saline sonified 106 % of control | dose: 200.0 mg/kg/injection, schedule: Q01DX001 (ip), vehicle: saline sonified 96 % of control | dose: 200.0 mg/kg/injection, schedule: Q01DX009 (ip), vehicle: saline sonified 94 % of control

Nc1nc(I)c2[nH]cnc2n1
inactive: dose: 25.0 mg/kg/injection, schedule: Q01DX Z (ip), vehicle: methylcellulose (MC) 95 % of control | dose: 50.0 mg/kg/injection, schedule: Q01DX Z (ip), vehicle: methylcellulose (MC) 103 % of control | [18] 108 % of control

CCOC(=O)c1cnc(C)nc1Nc1c(C)cccc1C
inactive: dose: 100.0 mg/kg/injection, schedule: Q01DX001 (ip), vehicle: Klucel (hydroxypropylcellulose) (HPC) 99 % of control | dose: 200.0 mg/kg/injection, schedule: Q01DX001 (ip), vehicle: Klucel (hydroxypropylcellulose) (HPC) 105 % of control | dose: 400.0 mg/kg/injection, schedule: Q01DX001 (ip), vehicle: Klucel (hydroxypropylcellulose) (HPC) 100 % of control
